Measured values published in US5446056A, “Isoxazoline compounds useful as fibrinogen receptor antagonists” (The Du Pont Merck Pharmaceutical Company, priority 1994, dated 1995).

System: human platelet rich plasma
Experiment: Platelet aggregation assay (platelet rich plasma, PRP)
Assay type: cell-based
Conditions: concentration which inhibits platelet aggregation by 50% relative to control, ester prodrugs preincubated with porcine liver esterase, ADP-induced
Description: Platelet Aggregation Assay: Venous blood was obtained from the arm of a healthy human donor who was drug-free and aspirin-free for at least two weeks prior to blood collection. Blood was collected into 10 mL citrated Vacutainer tubes. The blood was centrifuged for 15 minutes at 150×g at room temperature, and platelet-rich plasma (PRP) was removed. The remaining blood was centrifuged for 15 minutes at 1500×g at room temperature, and platelet-poor plasma (PPP) was removed. Samples were assayed on a aggregometer (PAP-4 Platelet Aggregation Profiler), using PPP as the blank (100% transmittance). 200 μL of PRP was added to each micro test tube, and transmittance was set to 0%. 20 μL of various agonists (ADP, collagen, arachidonate, epinephrine, thrombin) were added to each tube, and the aggregation profiles were plotted (% transmittance versus time). The results are expressed as % inhibition of agonist-induced platelet aggregation. […] Percent inhibition is calculated using percent aggregation in the presence of the test compound divided by percent aggregation of control, times 100. […]
Platelet Aggregation Assay; Venous blood was obtained from the arm of a healthy human donor who was drug-free and aspirin-free for at least two weeks prior to blood collection. […] The results are expressed as % inhibition of agonist-induced platelet aggregation. […]

Compound: CCNC(=N)c1ccc(C2=NOC(CC(=O)NCCC(=O)O)C2)cc1 (racemic) [Example 23, 5(R,S)-3-[3-(4-N-ethylamidinophenyl)isoxazolin-5-ylacetyl]aminopropanoic acid]
- IC50: < 10 µM
